Publication PMC11356571, “The Comparative Metabolism of a Novel Hepatocellular Carcinoma Therapeutic Agent, 2,3-Diamino-N-(4-(benzo[d]thiazol-2-yl)phenyl)propanamide, in Human and Animal Hepatocytes” (Metabolites, 2024)

Tests used:
Format in all cases: in vitro ADME
[1] = Metabolic stability in mouse hepatocytes; details: cryopreserved hepatocytes
Experimental: (§1) Cryopreserved hepatocytes were carefully thawed in a 37 °C water bath for approximately 1 min, and transferred to a tube containing pre-warmed thawing medium. The supernatants were removed and the pellets were resuspended in KHB at a final cell density of 1 × 10^6 cells/mL, based on hemocytometer counting using trypan blue exclusion. A ETN101 solution was prepared by dissolving ETN101 in water at 4 mM and diluted by KHB at the concentration of 4 μM of ETN101. Sixty microliters each of hepatocyte suspensions and 4 μM of ETN101 were added in a 96-well plate and incubated for 0, 5, 15, 30, and 45 min at 37 °C in a CO2 incubator. All incubations were conducted in triplicates. Reactions were terminated by the addition of 120 μL of ice-cold acetonitrile and followed by vortex mixing. After centrifugation at 13,000 rpm for 8 min at 4 °C, 5 μL of internal standard (IS, camptothecin in acetonitrile at 780 ng/mL) was added to 60 μL of supernatant. A 2 μL aliquot was injected into the LC-MS/MS system. The reliability of the analysis was confirmed by incorporating three different levels of quality control samples at the beginning and end of each analytical batch. The disappearance rate (k) of ETN101 was calculated by determined peak area ratio of ETN101 to IS over incubation period. Subsequently, half-life (t1/2), intrinsic clearance (Clint), and intrinsic hepatic clearance (Clint,hep) of ETN101 in human and animal hepatocytes were calculated using the following equation [34]: t1/2(min)=ln2/−k(elimination slope) ClintμL/min/10^6 cells=ln2/t1/2×μL incubation/hepatocytes (10^6 cells) Clint,hepmL/min/kg=Clint/1000×A×10^6 cells/g liver×B g liver/kg body weight […]
(§2) For the metabolic stability assay, an LC-MS/MS system was employed, consisting of an Agilent 1260 series HPLC system (Agilent Technologies Inc., Santa Clara, CA, USA) coupled to an API 4000 mass spectrometer (AB SCIEX, Concord, Vaughan, ON, Canada) equipped with a turbo electrospray interface. […] ETN101 and IS were detected using multiple reaction monitoring (MRM) mode under positive electrospray ionization (ESI). […]

[2] = Metabolic stability in monkey hepatocytes; details: cryopreserved hepatocytes
Experimental: as §1, §2

[3] = system: NAT1 in human liver cytosol; assay: Human liver cytosol incubation with NAT1 inhibitor caffeic acid; details: 30 min at 37 °C, M1 1 μM
Experimental: For the chemical inhibition assay, human liver cytosol was prepared in 0.05 M potassium phosphate buffer at a concentration of 1 mg/mL prior to use. A 1 μL of M1 (final concentration: 1 μM) solution was spiked in 223 μL of human liver cytosol preparations. One microliter each of caffeic acid and 1-aminobenzotriazole were added and incubated as NAT1 and NAT2 inhibitors, respectively. The final concentrations of the NAT inhibitors were 0, 100, and 1000 μM in each incubate. After 5 min of pre-warming of the incubates at 37 °C, the metabolic reaction was initiated by adding 25 μL of acetyl-CoA regenerating system to the incubates. The samples were incubated in triplicate for 0 min or 30 min at 37 °C. The reaction was stopped by adding 250 μL of ice-cold acetonitrile containing the IS (camptothecin, 500 ng/mL) and vortex-mixing. Following centrifugation at 13,000 rpm for 5 min at 4 °C, a 2 μL aliquot of the supernatant was injected into the LC-MS/MS system. The percentage of remaining M1 and the formation of M2 were evaluated to determine the involvement of the NAT isozyme in N-acetylation of M1.
For enzyme characterization, an Agilent 6460 triple quadrupole mass spectrometer coupled with a 1260 HPLC system (Agilent Technologies, Santa Clara, CA, USA) and a Kinetex Halo® C18 column (2.7 μm, 2.1 × 50 mm, Advanced Material Technology, Wilmington, DE, USA) were used for chromatographic separation. The mobile phases comprised 0.1% (v/v) formic acid in water (mobile phase A) and 0.1% formic acid (v/v) in acetonitrile (mobile phase B). The mobile phase flowed at a rate of 0.3 mL/min, and the gradient elution program proceeded as follows: starting with 10% B for 0.5 min, a linear increase to 90% B for 0.2 min, maintaining 90% B for 1.5 min, and then returning to initial conditions for 0.2 min. Subsequently, the column was reconditioned using 10% B for 2.6 min. The column and auto-sampler were maintained at 40 °C and 4 °C, respectively. ETN101, M1, and M2 were detected via MRM using ESI in the positive mode. […]

Row | half-life at 2 µM ([1]; 45 min incubation at 37 °C) [h] | hepatocyte CLint at 2 µM ([1]; 45 min incubation at 37 °C) [µL/min/1e6 cells] | CLint scaled at 2 µM ([1]; scaled from Clint) [mL/min/kg] | half-life at 2 µM ([2]; 45 min incubation at 37 °C) [h] | hepatocyte CLint at 2 µM ([2]; 45 min incubation at 37 °C) [µL/min/1e6 cells] | CLint scaled at 2 µM ([2]; scaled from Clint) [mL/min/kg] | SMILES | Percentage remaining of M1 ([3]; caffeic acid 0 μM) [%] | Percentage remaining of M1 ([3]; caffeic acid 100 μM) [%] | Percentage remaining of M1 ([3]; caffeic acid 1000 μM) [%]
1 | 2.01 | 11.5 | 136 | 1.22 | 19 | 45.7 | NCC(N)C(=O)Nc1ccc(-c2nc3ccccc3s2)cc1 (stereo not drawn) [ETN101, 2,3-diamino-N-(4-(benzo[d]thiazol-2-yl)phenyl)propanamide] |  |  | 
2 |  |  |  |  |  |  | Nc1ccc(-c2nc3ccccc3s2)cc1 [M1, 2-(4-aminophenyl)benzothiazole] | 87.2 | 89.6 | 94.4
